Assay results published in PubChem BioAssay (NCI).
“And” between values parts separate entries of the source, which are not always exact repeats. Equal entries are not always repeated.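 Dose response: 5 concentrations. Exposure: 48 h. Format: 96-well plates. Endpoint: linear interpolation; highest concentration if not reached. At the GI50, growth is halved. TGI marks complete inhibition of growth.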

Experiments:
Test in all cases: growth of human tumour cells (NCI), 48 h
[1] = test system: PC-3 prostate
[2] = test system: SW-620 colon
[3] = test system: KM12 colon
[4] = test system: EKVX NSCLC
[5] = test system: RPMI-8226 leukemia
[6] = test system: HS 578T breast
[7] = test system: U251 CNS
[8] = test system: A498 renal
[9] = test system: SNB-19 CNS
[10] = test system: NCI-H522 lung
[11] = test system: UACC-62 melanoma
[12] = test system: MDA-MB-231 breast
[13] = test system: SNB-75 CNS
[14] = test system: HCT-15 colon
[15] = test system: CCRF-CEM leukemia
[16] = test system: SN12C renal
[17] = test system: SR leukemia
[18] = test system: CAKI-1 renal
[19] = test system: MOLT-4 leukemia
[20] = test system: UO-31 renal
[21] = test system: HT29 colon
[22] = test system: SF-295 CNS
[23] = test system: OVCAR-4 ovarian
[24] = test system: COLO 205 colon
[25] = test system: UACC-257 melanoma
[26] = test system: OVCAR-8 ovarian
[27] = test system: 786-0 renal
[28] = test system: SF-539 CNS
[29] = test system: BT-549 breast
[30] = test system: HL-60(TB) leukemia
[31] = test system: MCF7 breast
[32] = test system: M14 melanoma
[33] = test system: HOP-92 NSCLC
[34] = test system: A549 NSCLC
[35] = test system: NCI-H23 lung
[36] = test system: NCI/ADR-RES ovarian
[37] = test system: RXF 393 renal
[38] = test system: OVCAR-3 ovarian
[39] = test system: ACHN renal
[40] = test system: HOP-62 NSCLC
[41] = test system: HCC-2998 colon
[42] = test system: SK-OV-3 ovarian
[43] = test system: MDA-N
[44] = test system: TK-10 renal
[45] = test system: OVCAR-5 ovarian
[46] = test system: SK-MEL-2 melanoma
[47] = test system: T-47D breast
[48] = test system: MDA-MB-435
[49] = test system: SK-MEL-28 melanoma
[50] = test system: IGROV1 ovarian
[51] = test system: MALME-3M melanoma
[52] = test system: K-562 leukemia
[53] = test system: NCI-H460 lung
[54] = test system: NCI-H226 lung
[55] = test system: DU-145 prostate
[56] = test system: SK-MEL-5 melanoma
[57] = test system: LOX IMVI melanoma
[58] = test system: HCT-116 colon
[59] = test system: SF-268 CNS

## C=C1C[C@H]2C=Nc3cc(OCCCOc4cc5c(cc4OC)C(=O)N4CC(=C)C[C@H]4C=N5)c(OC)cc3C(=O)N2C1
[1]
  GI50: 21.2 nM and < 13.8 nM
  TGI: 3130 nM
[2]
  GI50: 14.4 nM
  TGI: > 85200 nM
[3]
  GI50: 20.1 nM
  TGI: 72.2 nM and 16.9 nM
[4]
  GI50: 66.5 nM and 18.2 nM
[5]
  GI50: 0.136 nM
  TGI: 9.04 nM and 25.2 nM
[6]
  TGI: > 100000 nM
[7]
  TGI: 3300 nM
[8]
  TGI: 57.8 nM
[9]
  GI50: 5.45 nM
  TGI: 4390 nM
[10]
  TGI: 30.9 nM
[11]
  GI50: 0.264 nM
  TGI: 0.834 nM and < 12.3 nM
[12]
  GI50: 18.5 nM
  TGI: 45.2 nM
[13]
  GI50: 1.78 nM
  TGI: 14.5 nM and < 15.5 nM
[14]
  GI50: 23.1 nM
[15]
  GI50: 0.19 nM
  TGI: 14.4 nM
[16]
  GI50: 1.51 nM
[17]
  TGI: 218 nM
[18]
  GI50: 11.3 nM
[19]
  TGI: 1.05 nM
[20]
  TGI: 289 nM
[21]
  TGI: 19700 nM
[22]
  GI50: 7.06 nM
  TGI: 640 nM
[23]
  GI50: < 12 nM
  TGI: 19.1 nM
[24]
  GI50: 5.46 nM
  TGI: 34.3 nM
[25]
  GI50: 21.3 nM
  TGI: 42.1 nM and 91.7 nM
[26]
  TGI: > 18400 nM
[27]
  GI50: 1.25 nM
[28]
  GI50: 4.59 nM
  TGI: 11.7 nM and 28.6 nM
[29]
  GI50: 12.6 nM
[30]
  GI50: 0.245 nM
[31]
  TGI: 41300 nM
[32]
  GI50: 8.58 nM and < 13 nM
  TGI: 84.6 nM
[33]
  TGI: 151 nM
[34]
  GI50: 13.5 nM
  TGI: > 100000 nM
[35]
  TGI: 15.8 nM
[36]
  GI50: 317 nM and 97.2 nM
  TGI: 2840 nM
[37]
  TGI: < 29.2 nM
[38]
  TGI: 200 nM
[39]
  TGI: 92.2 nM
[40]
  TGI: < 215 nM
[41]
  TGI: 14.3 nM
[42]
  GI50: < 14.7 nM
  TGI: 33100 nM
[43]
  TGI: 25.6 nM
[44]
  TGI: < 177 nM
[45]
  GI50: 19.7 nM and < 20.5 nM
[46]
  GI50: 16.8 nM and < 12.8 nM
  TGI: 34.7 nM and < 28.2 nM
[47]
  GI50: 24.4 nM
  TGI: 3530 nM
[48]
  GI50: 13.4 nM and < 14.8 nM
  TGI: 33.9 nM and < 215 nM
[49]
  TGI: 43.6 nM
[50]
  TGI: 34.1 nM
[51]
  GI50: 12.2 nM
  TGI: 29.2 nM and < 14.4 nM
[52]
  TGI: 3440 nM
[53]
  GI50: 0.277 nM
  TGI: 544 nM
[54]
  TGI: 48.2 nM
[55]
  GI50: 4.96 nM and < 13.3 nM
  TGI: 24000 nM

## CCCn1c2c(c3ccccc3c1=O)C(=O)c1ccccc1-2
[1]
  TGI: > 100000 nM
[2]
  TGI: > 100000 nM
[3]
  TGI: > 100000 nM
[4]
  TGI: > 100000 nM
[5]
  TGI: > 100000 nM
[6]
  TGI: > 100000 nM
[7]
  TGI: > 100000 nM
[8]
  TGI: > 100000 nM
[9]
  TGI: > 100000 nM
[10]
  TGI: 39600 nM
[11]
  TGI: > 100000 nM
[12]
  TGI: > 100000 nM
[56]
  TGI: > 100000 nM
[13]
  TGI: > 100000 nM
[14]
  TGI: > 100000 nM
[15]
  TGI: > 100000 nM
[16]
  TGI: > 100000 nM
[57]
  TGI: > 100000 nM
[17]
  TGI: > 100000 nM
[18]
  TGI: > 100000 nM
[19]
  TGI: > 100000 nM
[20]
  TGI: > 100000 nM
[21]
  TGI: > 100000 nM
[22]
  TGI: > 100000 nM
[23]
  TGI: > 100000 nM
[24]
  TGI: > 100000 nM
[25]
  TGI: > 100000 nM
[26]
  TGI: > 100000 nM
[27]
  TGI: > 100000 nM
[28]
  TGI: > 100000 nM
[29]
  TGI: > 100000 nM
[30]
  TGI: 7250 nM
[31]
  TGI: > 100000 nM
[32]
  TGI: > 100000 nM
[33]
  TGI: > 100000 nM
[58]
  TGI: > 100000 nM
[34]
  TGI: > 100000 nM
[35]
  TGI: > 100000 nM
[36]
  TGI: > 100000 nM
[37]
  TGI: > 100000 nM
[38]
  TGI: > 100000 nM
[39]
  TGI: > 100000 nM
[40]
  TGI: > 79600 nM
[41]
  TGI: > 100000 nM
[59]
  TGI: > 100000 nM
[42]
  TGI: > 100000 nM
[43]
  TGI: > 100000 nM
[44]
  TGI: > 100000 nM
[45]
  TGI: > 100000 nM
[46]
  TGI: > 100000 nM
[47]
  TGI: > 100000 nM
[48]
  TGI: > 100000 nM
[49]
  TGI: > 100000 nM
[50]
  TGI: > 100000 nM
[51]
  TGI: > 100000 nM
[52]
  TGI: > 100000 nM
[53]
  TGI: > 100000 nM
[54]
  TGI: > 100000 nM
[55]
  TGI: > 100000 nM
